The record followed here is patent US10100049B2, “JAK kinase inhibitor compounds for treatment of respiratory disease” (THERAVANCE BIOPHARMA R&D IP, LLC, priority 2015, dated 2018).

One data set addresses JAK3 (Homo sapiens (Human), UniProt P52333). The experiment in a line: LanthaScreen JAK biochemical assay (JAK3). Conditions: ATP at Km 1.6 μM; read-out: JAK 3 (pKi) (converted). (In TR-FRET formats the signal depends on donor and acceptor labels being close together.)
Data set [1] is described as follows: Pharmacokinetics in plasma and lung in mouse. Format: in vivo. The note with it: oral aspiration 0.2 mg/mL 50 uL, lung AUC (μg hr/g) / plasma AUC (μg hr/mL). Here is the method:
Plasma and lung levels of test compounds and ratios thereof were determined in the following manner. BALB/c mice from Charles River Laboratories were used in the assay. Test compounds were individually formulated in 20% propylene glycol in pH 4 citrate buffer at a concentration of 0.2 mg/mL and 50 uL of the dosing solution was introduced into the trachea of a mouse by oral aspiration. At various time points (typically 0.167, 2, 6, 24 hr) post dosing, blood samples were removed via cardiac puncture and intact lungs were excised from the mice. Blood samples were centrifuged (Eppendorf centrifuge, 5804R) for 4 minutes at approximately 12,000 rpm at 4° C. to collect plasma. Lungs were padded dry, weighed, and homogenized at a dilution of 1:3 in sterile water. Plasma and lung levels of test compound were determined by LC-MS analysis against analytical standards constructed into a standard curve in the test matrix. A lung to plasma ratio was determined as the ratio of the lung AUC in μg hr/g to the plasma AUC in μg hr/mL, where AUC is conventionally defined as the area under the curve of test compound concentration vs. time.

Data set [2] deals with IL-13 induced pSTAT6 in lung tissue. The experiment in a line: Murine model of IL-13 induced pSTAT6 induction in lung tissue. The format is in vivo. Conditions: mouse lung; for inhibition in vivo at 500 µg/mL / pSTAT6 inhibition Assay 5: 0.5 mg/mL, 50 μL oral aspiration, IL-13 challenge 4 h after dosing, lungs collected 1 h later; for inhibition in vivo at 500 µg/mL: read-out: pSTAT6 inhibition Assay 5. Here is the method:
Il-13 is an important cytokine underlying the pathophysiology of asthma (Kudlacz et al. Eur. J. Pharmacol, 2008, 582, 154-161). IL-13 binds to cell surface receptors activating members of the Janus family of kinases (JAK) which then phosphorylate STAT6 and subsequently activates further transcription pathways. In the described model, a dose of IL-13 was delivered locally into the lungs of mice to induce the phosphorylation of STAT6 (pSTAT6) which is then measured as the endpoint.
Adult balb/c mice from Harlan were used in the assay. On the day of study, animals were lightly anesthetized with isoflurane and administered either vehicle or test compound (0.5 mg/mL, 50 μL total volume over several breaths) via oral aspiration. Animals were placed in lateral recumbency post dose and monitored for full recovery from anesthesia before being returned to their home cage. Four hours later, animals were once again briefly anesthetized and challenged with either vehicle or IL-13 (0.03 μg total dose delivered, 50 μL total volume) via oral aspiration before being monitored for recovery from anesthesia and returned to their home cage. One hour after vehicle or IL-13 administration, lungs were collected for both pSTAT6 detection using an anti-pSTAT6 ELISA (rabbit mAb capture/coating antibody; mouse mAb detection/report antibody: anti-pSTAT6-pY641; secondary antibody: anti-mouse IgG-HRP) and analyzed for total drug concentration as described above in Assay 4.
Selected compounds of the invention were tested in the assay. Activity in the model is evidenced by a decrease in the level of pSTAT6 present in the lungs of treated animals at 5 hours compared to the vehicle treated, IL-13 challenged control animals. The difference between the control animals which were vehicle-treated, IL-13 challenged and the control animals which were vehicle-treated, vehicle challenged dictated the 0% and 100% inhibitory effect, respectively, in any given experiment.

Data set [3] deals with IL-13 induced STAT6 phosphorylation in BEAS-2B human lung epithelial cells. Briefly: AlphaScreen cellular potency assay, IL-13 induced STAT6 phosphorylation in BEAS-2B cells. The format is cell-based. Conditions: IL-13 induced STAT6 phosphorylation, BEAS-2B cells; for IC50: Homo sapiens, read-out: BEAS-2B pIC50 (converted).
Method: The AlphaScreen JAM cellular potency assay was carried out by measuring interleukin-13 (IL-13, R&D Systems) induced STAT6 phosphorylation in BEAS-2B human lung epithelial cells (ATCC). The anti-STAT6 antibody (Cell Signaling Technologies) was conjugated to AlphaScreen acceptor beads (Perkin Elmer), while the anti-pSTAT6 (pTyr641) antibody (Cell Signaling Technologies) was biotinylated using EZ-Link Sulfo-NHS-Biotin (Thermo Scientific).
BEAS-2B cells were grown at 37° C. in a 5% CO2 humidified incubator in 50% DMEM/50% F-12 medium (Life Technologies) supplemented with 10% FBS (Hyclone), 100 U/mL penicillin, 100 μg/mL streptomycin (Life Technologies), and 2 mM GlutaMAX (Life Technologies). On day 1 of the assay, cells were seeded at a 7,500 cells/well density in white poly-D-lysine-coated 384-well plates (Corning) with 25 μL medium, and were allowed to adhere overnight in the incubator. On day 2 of the assay, the medium was removed and replaced with 12 μL of assay buffer (Hank's Balanced Salt Solution/HBSS, 25 mM HEPES, and 1 mg/ml bovine serum albumin/BSA) containing dose-responses of test compounds. Compounds were serially diluted in DMSO and then diluted another 1000-fold in media to bring the final DMSO concentration to 0.1%. Cells were incubated with test compounds at 37° C. for 1 h, and followed by the addition of 12 μl of pre-warmed IL-13 (80 ng/ml in assay buffer) for stimulation. After incubating at 37° C. for 30 min, the assay buffer (containing compound and IL-13) was removed, and 10 μl of cell lysis buffer (25 mM HEPES, 0.1% SDS, 1% NP-40, 5 mM MgCl2, 1.3 mM EDTA, 1 mM EGTA, and supplement with Complete Ultra mini protease inhibitors and PhosSTOP from Roche Diagnostics). The plates were shaken at ambient temperature for 30 min before the addition of detection reagents. A mixture of biotin-anti-pSTAT6 and anti-STAT6 conjugated acceptor beads was added first and incubated at ambient temperature for 2 h, followed by the addition of streptavidin conjugated donor beads (Perkin Elmer). After a minimum of 2 h incubation, the assay plates were read on the EnVision plate reader.
Results were expressed as the negative logarithm of the IC50 value, pIC50.
In a further data set the target is Tyk2 (Homo sapiens (Human), UniProt P29597). The experiment in a line: LanthaScreen JAK biochemical assay (Tyk2). Note: ATP at Km 10 µM. The note with it: read-out: Tyk 2 (PKi).
Another data set deals with JAK2 (Homo sapiens (Human), UniProt O60674).

A value given as a limit tells only on which side of the number the result lay.

Sequence of JAK3 (P52333 whole entry): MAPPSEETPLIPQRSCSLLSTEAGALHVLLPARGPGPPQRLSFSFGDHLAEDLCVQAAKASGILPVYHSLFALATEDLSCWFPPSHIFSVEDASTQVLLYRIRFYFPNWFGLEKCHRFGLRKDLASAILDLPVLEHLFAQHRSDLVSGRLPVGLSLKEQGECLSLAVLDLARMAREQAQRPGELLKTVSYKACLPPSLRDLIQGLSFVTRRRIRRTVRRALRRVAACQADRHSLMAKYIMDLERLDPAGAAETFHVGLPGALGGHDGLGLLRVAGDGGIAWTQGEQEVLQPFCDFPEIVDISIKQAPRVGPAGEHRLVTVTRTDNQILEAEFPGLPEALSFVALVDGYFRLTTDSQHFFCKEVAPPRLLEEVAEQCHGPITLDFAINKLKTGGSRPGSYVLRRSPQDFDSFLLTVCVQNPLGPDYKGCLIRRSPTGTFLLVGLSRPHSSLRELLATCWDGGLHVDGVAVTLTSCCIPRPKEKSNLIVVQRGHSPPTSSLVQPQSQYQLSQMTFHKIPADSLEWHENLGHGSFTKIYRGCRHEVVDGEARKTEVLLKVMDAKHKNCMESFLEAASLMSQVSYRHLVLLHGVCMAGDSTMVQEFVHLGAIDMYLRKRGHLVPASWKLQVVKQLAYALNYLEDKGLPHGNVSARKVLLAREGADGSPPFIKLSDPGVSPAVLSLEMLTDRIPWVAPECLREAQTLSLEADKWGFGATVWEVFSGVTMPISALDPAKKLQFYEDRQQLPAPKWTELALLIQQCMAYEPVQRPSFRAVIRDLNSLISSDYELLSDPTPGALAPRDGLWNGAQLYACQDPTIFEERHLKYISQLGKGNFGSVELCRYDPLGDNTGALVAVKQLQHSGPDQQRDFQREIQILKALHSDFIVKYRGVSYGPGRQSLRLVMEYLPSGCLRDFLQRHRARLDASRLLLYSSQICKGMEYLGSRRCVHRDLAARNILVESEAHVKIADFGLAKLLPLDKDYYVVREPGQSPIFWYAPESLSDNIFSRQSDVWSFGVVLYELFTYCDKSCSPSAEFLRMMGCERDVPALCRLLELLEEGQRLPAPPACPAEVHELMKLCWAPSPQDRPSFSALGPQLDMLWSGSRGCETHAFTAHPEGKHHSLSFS
Sequence of JAK2 (O60674 whole entry): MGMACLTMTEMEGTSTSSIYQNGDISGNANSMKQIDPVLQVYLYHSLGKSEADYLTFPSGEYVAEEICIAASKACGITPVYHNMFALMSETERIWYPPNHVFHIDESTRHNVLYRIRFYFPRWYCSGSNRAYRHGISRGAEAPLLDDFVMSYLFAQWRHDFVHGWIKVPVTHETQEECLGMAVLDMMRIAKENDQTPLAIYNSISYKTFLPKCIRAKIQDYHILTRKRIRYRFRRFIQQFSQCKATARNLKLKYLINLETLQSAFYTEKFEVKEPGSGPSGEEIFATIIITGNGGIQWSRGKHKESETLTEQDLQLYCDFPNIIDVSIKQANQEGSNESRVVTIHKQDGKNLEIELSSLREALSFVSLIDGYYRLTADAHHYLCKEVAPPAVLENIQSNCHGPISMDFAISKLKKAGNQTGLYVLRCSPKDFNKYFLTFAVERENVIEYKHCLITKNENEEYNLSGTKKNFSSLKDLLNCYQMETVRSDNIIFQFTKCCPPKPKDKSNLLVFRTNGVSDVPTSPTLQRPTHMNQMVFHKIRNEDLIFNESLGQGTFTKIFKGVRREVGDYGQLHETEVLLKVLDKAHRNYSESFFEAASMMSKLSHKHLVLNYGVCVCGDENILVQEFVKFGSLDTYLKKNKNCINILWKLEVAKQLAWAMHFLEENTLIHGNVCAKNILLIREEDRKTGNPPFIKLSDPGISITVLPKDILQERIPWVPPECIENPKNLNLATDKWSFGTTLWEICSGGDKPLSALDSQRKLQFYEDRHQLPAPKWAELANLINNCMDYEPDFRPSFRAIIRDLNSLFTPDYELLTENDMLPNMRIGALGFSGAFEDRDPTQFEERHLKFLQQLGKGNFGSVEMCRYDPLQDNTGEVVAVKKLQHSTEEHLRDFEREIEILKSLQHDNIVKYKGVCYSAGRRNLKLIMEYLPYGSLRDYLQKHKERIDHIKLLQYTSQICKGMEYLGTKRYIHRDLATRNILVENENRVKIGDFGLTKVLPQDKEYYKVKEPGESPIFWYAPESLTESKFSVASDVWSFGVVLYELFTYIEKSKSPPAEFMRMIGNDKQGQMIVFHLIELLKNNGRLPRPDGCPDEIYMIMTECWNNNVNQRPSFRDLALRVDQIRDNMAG
Sequence of Tyk2 (P29597 whole entry): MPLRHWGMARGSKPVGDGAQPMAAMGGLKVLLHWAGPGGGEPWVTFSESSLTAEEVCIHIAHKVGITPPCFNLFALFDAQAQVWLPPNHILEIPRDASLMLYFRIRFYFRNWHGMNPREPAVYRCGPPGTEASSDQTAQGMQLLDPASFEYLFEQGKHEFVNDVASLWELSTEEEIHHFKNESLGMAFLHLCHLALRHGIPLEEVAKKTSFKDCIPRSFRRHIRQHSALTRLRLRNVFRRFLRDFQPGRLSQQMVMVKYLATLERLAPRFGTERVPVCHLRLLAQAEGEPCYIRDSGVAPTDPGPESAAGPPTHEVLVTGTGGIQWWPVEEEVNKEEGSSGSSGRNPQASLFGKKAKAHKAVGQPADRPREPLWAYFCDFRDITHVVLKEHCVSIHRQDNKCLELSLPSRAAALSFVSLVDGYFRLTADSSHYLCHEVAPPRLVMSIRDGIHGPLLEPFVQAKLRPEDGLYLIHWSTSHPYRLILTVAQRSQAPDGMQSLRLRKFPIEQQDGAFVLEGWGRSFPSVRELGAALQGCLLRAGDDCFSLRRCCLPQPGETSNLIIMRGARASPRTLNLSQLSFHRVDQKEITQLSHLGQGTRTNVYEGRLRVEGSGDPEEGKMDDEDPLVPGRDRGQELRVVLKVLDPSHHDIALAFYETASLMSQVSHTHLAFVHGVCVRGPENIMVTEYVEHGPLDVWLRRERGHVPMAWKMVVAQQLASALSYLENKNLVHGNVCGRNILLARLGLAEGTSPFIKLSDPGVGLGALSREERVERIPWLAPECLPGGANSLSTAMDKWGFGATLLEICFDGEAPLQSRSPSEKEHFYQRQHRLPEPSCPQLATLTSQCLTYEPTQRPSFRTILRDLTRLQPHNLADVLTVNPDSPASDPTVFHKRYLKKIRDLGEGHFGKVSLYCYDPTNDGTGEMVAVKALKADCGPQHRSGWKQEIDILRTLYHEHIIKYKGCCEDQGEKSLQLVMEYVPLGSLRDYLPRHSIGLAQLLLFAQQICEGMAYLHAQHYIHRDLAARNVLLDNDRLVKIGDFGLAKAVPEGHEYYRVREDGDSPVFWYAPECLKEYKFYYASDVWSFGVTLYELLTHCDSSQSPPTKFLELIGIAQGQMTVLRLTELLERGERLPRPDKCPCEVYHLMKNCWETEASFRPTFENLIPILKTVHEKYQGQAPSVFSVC

As to `CCc1cc(O)c(F)cc1-c1ccc2c(-c3nc4c([nH]3)CCN(CC(F)CN(C)C)C4)n[nH]c2c1` (stereo not shown) [Example 12, 4-(3-(5-(3-(dimethylamino)-2-fluoropropyl)-4,5,6,7-tetrahydro-1H-imidazo[4,5-c]pyridin-2-yl)-1H-indazol-6-yl)-5-ethyl-2-fluorophenol], the Ki on JAK3 is 0.1 to 1 nM; at Tyk2, 0.316 to 1 nM; on JAK2, under 0.1 nM. Moreover, the “Lung to Plasma ratio Assay 4” value in data set [1] was “C (C denotes a ratio between 10 and 50)”. In addition, the inhibition in vivo at 500 µg/mL in data set [2] was 33 to 50%. For the same compound, the IC50 in data set [3] was under 10 nM.

Regarding `CCc1cc(O)c(F)cc1-c1ccc2c(-c3nc4c([nH]3)CCN(C3CN(C(C)CC)C3)C4)n[nH]c2c1` (stereo not shown) [Example 4, 4-(3-(5-(1-(sec-butyl)azetidin-3-yl)-4,5,6,7-tetrahydro-1H-imidazo[4,5-c]pyridin-2-yl)-1H-indazol-6-yl)-5-ethyl-2-fluorophenol], in data set [1], the “Lung to Plasma ratio Assay 4” value is “B (B denotes a ratio between 50 and 100)”. The inhibition in vivo at 500 µg/mL in data set [2] was over 65%. In addition, the IC50 in data set [3] was under 10 nM.

For `CCc1cc(O)c(F)cc1-c1ccc2c(-c3nc4c([nH]3)CCN(C3CN(C5CC5)C3)C4)n[nH]c2c1` [Example 5, 4-(3-(5-(1-cyclopropylazetidin-3-yl)-4,5,6,7-tetrahydro-1H-imidazo[4,5-c]pyridin-2-yl)-1H-indazol-6-yl)-5-ethyl-2-fluorophenol], the figures for the Ki at JAK3, at Tyk2 and on JAK2 were 0.1 to 1 nM, 0.316 to 1 nM and under 0.1 nM, respectively. Further, the “Lung to Plasma ratio Assay 4” value in data set [1] was “C (C denotes a ratio between 10 and 50)”. Moreover, in data set [2], the inhibition in vivo at 500 µg/mL was over 65%. Further, the IC50 in data set [3] was under 10 nM.

As for `CCc1cc(O)c(F)cc1-c1ccc2c(-c3nc4c([nH]3)CCN(C3CN(CC5CC5)C3)C4)n[nH]c2c1` [Example 1-18], in data set [1], the “Lung to Plasma ratio Assay 4” value is “B (B denotes a ratio between 50 and 100)”. Further, the “pSTAT6 inhibition Assay 5” value in data set [2] was “C (C represents between 33% and 50% inhibition)”.

For `CCc1cc(O)c(F)cc1-c1ccc2c(-c3nc4c([nH]3)CCN(CCN3CCC[C@@H]3C)C4)n[nH]c2c1` [Example 15, (S)-5-ethyl-2-fluoro-4-(3-(5-(2-(2-methylpyrrolidin-1-yl)ethyl)-4,5,6,7-tetrahydro-1H-imidazo[4,5-c]pyridin-2-yl)-1H-indazol-6-yl)phenol], the Ki is 0.1 to 1 nM on JAK3, 0.316 to 1 nM at Tyk2 and under 0.1 nM on JAK2. Further, the “Lung to Plasma ratio Assay 4” value in data set [1] is on record as “A (A denotes a ratio >100)”. For the same compound, the inhibition in vivo at 500 µg/mL in data set [2] lay within 50 to 65%. The IC50 in data set [3] is under 10 nM.

Regarding `CCc1cc(O)c(F)cc1-c1ccc2c(-c3nc4c([nH]3)CCN(CCNC3(C#N)CC3)C4)n[nH]c2c1` [Example 3-1], the “pSTAT6 inhibition in the pharmacodynamic assay” value in data set [2] is given as “exceptions”.

`CCc1cc(O)c(F)cc1-c1ccc2c(-c3nc4c([nH]3)CCN(C3CN(CCC#N)C3)C4)n[nH]c2c1` [Example 1-8]: in data set [3], the “BEAS-2B pIC50” value was “A (A represents a pIC50 value ≥8 (IC50≤10 nM))”. At JAK2, the Ki is under 0.1 nM.

Consider `CCc1cc(O)c(F)cc1-c1ccc2c(-c3nc4c([nH]3)CCN(C3CCNCC3)C4)n[nH]c2c1` [Example 2-3], for which the “BEAS-2B pIC50” value in data set [3] is “B (B represents a pIC50 value between 7.4 and 8 (IC50 between 40 nM and 10 nM))”. On JAK2, this compound came in with a Ki of under 0.1 nM.

For `CCc1cc(O)c(F)cc1-c1ccc2c(-c3nc4c([nH]3)CCN(CC3CNC3)C4)n[nH]c2c1` [Example 14-7], the “Lung to Plasma ratio Assay 4” value in data set [1] is listed as “A (A denotes a ratio >100)”. In addition, the “pSTAT6 inhibition Assay 5” value in data set [2] is “B (B represents between 50% and 65% inhibition)”. Besides, the “BEAS-2B pIC50” value in data set [3] is “B (B represents a pIC50 value between 7.4 and 8 (IC50 between 40 nM and 10 nM))”. The same compound registered a Ki at JAK2 of under 0.1 nM.

With `CCc1cc(O)c(F)cc1-c1ccc2c(-c3nc4c([nH]3)CCN(C3CN(CCCOC)C3)C4)n[nH]c2c1` [Example 1-7], the “Lung to Plasma ratio Assay 4” value in data set [1] was “B (B denotes a ratio between 50 and 100)”. For the same compound, the “pSTAT6 inhibition Assay 5” value in data set [2] was “C (C represents between 33% and 50% inhibition)”.

Consider `CCc1cc(O)c(F)cc1-c1ccc2c(-c3nc4c([nH]3)CCN(CCN(C)CC(C)C)C4)n[nH]c2c1` [Example 3-33], for which the “Lung to Plasma ratio Assay 4” value in data set [1] was “A (A denotes a ratio >100)”. Also, the “pSTAT6 inhibition Assay 5” value in data set [2] is “C (C represents between 33% and 50% inhibition)”.

Consider `CCc1cc(O)c(F)cc1-c1ccc2c(-c3nc4c([nH]3)CCN(C3CN(CC)C3)C4)n[nH]c2c1` [Example 1-3], for which the “BEAS-2B pIC50” value in data set [3] was “B (B represents a pIC50 value between 7.4 and 8 (IC50 between 40 nM and 10 nM))”. Also, the Ki on JAK2 is under 0.1 nM.

Turning to `CCc1cc(O)c(F)cc1-c1ccc2c(-c3nc4c([nH]3)CCN(C3CN(CCO)C3)C4)n[nH]c2c1` [Example 1-1], in data set [3], the “BEAS-2B pIC50” value was “B (B represents a pIC50 value between 7.4 and 8 (IC50 between 40 nM and 10 nM))”. Further, the Ki at JAK2 was under 0.1 nM.

For `CCc1cc(O)c(F)cc1-c1ccc2c(-c3nc4c([nH]3)CCN(CCN(C)CC)C4)n[nH]c2c1` [Example 9, 5-ethyl-4-(3-(5-(2-(ethyl(methyl)amino)ethyl)-4,5,6,7-tetrahydro-1H-imidazo[4,5-c]pyridin-2-yl)-1H-indazol-6-yl)-2-fluorophenol], the “Lung to Plasma ratio Assay 4” value in data set [1] is “B (B denotes a ratio between 50 and 100)”. Besides, in data set [2], the inhibition in vivo at 500 µg/mL is 50 to 65%. Also, the IC50 in data set [3] is under 10 nM. For the same compound, the Ki was 0.316 to 1 nM at Tyk2 and under 0.1 nM at JAK2.

As to `CCc1cc(O)c(F)cc1-c1ccc2c(-c3nc4c([nH]3)CCN(C3CN(CCOC)C3)C4)n[nH]c2c1` [Example 1-6], the “BEAS-2B pIC50” value in data set [3] is on record as “A (A represents a pIC50 value ≥8 (IC50≤10 nM))”. On JAK2, this compound displayed a Ki of under 0.1 nM.

`CCc1cc(O)c(F)cc1-c1ccc2c(-c3nc4c([nH]3)CCN(C3CN(C5CCS(=O)(=O)C5)C3)C4)n[nH]c2c1` (stereo not shown) [Example 1-15]: the “pSTAT6 inhibition in the pharmacodynamic assay” value in data set [2] is listed as “exceptions”.

As to `CCc1cc(O)c(F)cc1-c1ccc2c(-c3nc4c([nH]3)CCN(CCN3CCCC3)C4)n[nH]c2c1` [Example 16, 5-Ethyl-2-fluoro-4-(3-(5-(2-(pyrrolidin-1-yl)ethyl)-4,5,6,7-tetrahydro-1H-imidazo[4,5-c]pyridin-2-yl)-1H-indazol-6-yl)phenol], the IC50 in data set [3] is under 10 nM. At JAK2, this compound returned a Ki of under 0.1 nM.

For the compound `CCc1cc(O)c(F)cc1-c1ccc2c(-c3nc4c([nH]3)CCN(C[C@@H]3COCCN3)C4)n[nH]c2c1` [Example 14, (R)-5-Ethyl-2-fluoro-4-(3-(5-(morpholin-3-ylmethyl)-4,5,6,7-tetrahydro-1H-imidazo[4,5-c]pyridin-2-yl)-1H-indazol-6-yl)phenol], the “Lung to Plasma ratio Assay 4” value in data set [1] is on record as “A (A denotes a ratio >100)”. Moreover, the inhibition in vivo at 500 µg/mL in data set [2] was over 65%. In data set [3], the IC50 was under 10 nM. The compound also registered a Ki at JAK2 of under 0.1 nM.

As for `CCc1cc(O)c(F)cc1-c1ccc2c(-c3nc4c([nH]3)CCN(C3CCN(C)C3)C4)n[nH]c2c1` (stereo not shown) [Example 9-2], the IC50 in data set [3] was under 10 nM. The Ki on Tyk2 is 0.316 to 1 nM; at JAK2, under 0.1 nM.

In the case of `CCc1cc(O)c(F)cc1-c1ccc2c(-c3nc4c([nH]3)CCN(C3CN(CC(C)C)C3)C4)n[nH]c2c1` [Example 1-11], the “Lung to Plasma ratio Assay 4” value in data set [1] was “C (C denotes a ratio between 10 and 50)”. In addition, in data set [2], the “pSTAT6 inhibition Assay 5” value was “C (C represents between 33% and 50% inhibition)”.

Turning to `CCc1cc(O)c(F)cc1-c1ccc2c(-c3nc4c([nH]3)CCN(C3CCNC3)C4)n[nH]c2c1` (stereo not shown) [Example 9-1], in data set [3], the “BEAS-2B pIC50” value is “B (B represents a pIC50 value between 7.4 and 8 (IC50 between 40 nM and 10 nM))”. The compound also came in with a Ki at JAK2 of under 0.1 nM.
